pEC50, pIC50: −log10 of the molar value.
Tests used:
Schistosoma mansoni [1] = assay: Antischistosomal activity against Schistosoma mansoni BH infected in Balb/c mouse assessed as reduction in worm burden at 400 mg/kg, po measurement after 2 weeks; assay type: functional; design: scale not given: the % may be the effect or the level left
ATP-diphosphohydrolase 1 = biological target: T1, ATP-diphosphohydrolase 1 (Schistosoma mansoni, UniProt Q7YTA4); assay: Inhibition of Schistosoma mansoni ATPDase1 incubated for 30 mins
T1 sequence (Q7YTA4 whole entry): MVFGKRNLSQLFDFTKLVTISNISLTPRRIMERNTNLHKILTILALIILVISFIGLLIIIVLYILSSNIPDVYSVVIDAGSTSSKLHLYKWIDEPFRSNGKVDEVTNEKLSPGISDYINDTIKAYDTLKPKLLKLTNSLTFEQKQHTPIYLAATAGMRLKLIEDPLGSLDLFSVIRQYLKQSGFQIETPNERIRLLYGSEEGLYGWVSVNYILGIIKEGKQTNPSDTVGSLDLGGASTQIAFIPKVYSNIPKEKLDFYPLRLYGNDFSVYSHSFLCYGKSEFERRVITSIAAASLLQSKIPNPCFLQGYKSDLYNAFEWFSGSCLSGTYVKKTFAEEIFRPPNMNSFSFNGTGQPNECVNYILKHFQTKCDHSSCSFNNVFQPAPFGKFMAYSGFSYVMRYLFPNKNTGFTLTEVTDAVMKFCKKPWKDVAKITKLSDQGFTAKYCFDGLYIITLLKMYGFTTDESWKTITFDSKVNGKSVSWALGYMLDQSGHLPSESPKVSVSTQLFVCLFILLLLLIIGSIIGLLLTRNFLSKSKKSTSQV

Schistosoma mansoni [2] = assay: Antischistosomal activity against Schistosoma mansoni Puerto Rican schistosomula assessed as effect on worm phenotype measured after 72 hrs; assay type: functional, organism-based
Schistosoma mansoni [3] = assay: Antischistosomal activity against Schistosoma mansoni Puerto Rican schistosomula assessed as effect on worm motility measured after 72 hrs; assay type: functional, organism-based
Schistosoma mansoni [4] = assay: Antischistosomal activity against juvenile Schistosoma mansoni Puerto Rican incubated for 72 hrs by microscopic method; assay type: functional, organism-based
Schistosoma mansoni [5] = assay: Antischistosomal activity against adult Schistosoma mansoni Puerto Rican incubated for 72 hrs by microscopic method; assay type: functional, organism-based
Schistosoma mansoni [6] = assay: Antischistosomal activity against Schistosoma mansoni NRMI schistosomula incubated for 24 hrs; assay type: functional
Schistosoma mansoni [7] = assay: Antischistosomal activity against Schistosoma mansoni at 50 uM measured after 120 hrs relative to control; assay type: functional
Schistosoma mansoni [8] = assay: Antischistosomal activity against Schistosoma mansoni BH infected in Swiss Webster mouse assessed as worm burden reduction at 100 mg/kg, po administered for 5 consecutive days and measured 15 days post-treatment (reference value: 19.8%); assay type: functional; design: scale not given: the % may be the effect or the level left; settings: time 15 day
Schistosoma mansoni [9] = assay: Antischistosomal activity against female Schistosoma mansoni LE incubated for 24 hrs by MTT assay; assay type: functional
Schistosoma mansoni [10] = assay: Antischistosomal activity against male Schistosoma mansoni LE incubated for 24 hrs by MTT assay; assay type: functional
CHO-K1 = assay: Cytotoxicity against CHO-K1 cells incubated for 24 hrs by colorimetric assay; assay type: functional, cell-based; settings: Cricetulus griseus, CHO-K1, 24 h
Schistosoma mansoni [11] = assay: Antischistosomal activity against Schistosoma mansoni at 50 uM measured after 96 hrs relative to control; assay type: functional
Schistosoma mansoni [12] = assay: Antischistosomal activity against adult Schistosoma mansoni LE assessed as worm mortality at 100 ug/ml incubated for 24 hrs by inverted microscopic method relative to control; assay type: functional
Schistosoma mansoni [13] = assay: Antischistosomal activity against adult Schistosoma mansoni LE assessed as reduction in worm vitality measured every 24 hrs by inverted microscopy; assay type: functional, organism-based
Schistosoma mansoni [14] = assay: Antischistosomal activity against Schistosoma mansoni LE schistosomula assessed as reduction in worm vitality measured every 24 hrs by inverted microscopy; assay type: functional, organism-based
Schistosoma japonicum = assay: Antischistosomal activity against juvenile Schistosoma japonicum assessed as reduction in worm vitality at 25 uM incubated for 72 hrs relative to control; assay type: functional; design: scale not given: the % may be the effect or the level left
Schistosoma mansoni [15] = assay: Antischistosomal activity against Schistosoma mansoni incubated for 72 hrs by microscopic method; assay type: functional, organism-based
Schistosoma mansoni [16] = assay: Antischistosomal activity against adult Schistosoma mansoni infected in NMRI mouse assessed as worm burden reduction at 400 mg/kg, po administered as single dose and measured at 21 days post treatment relative to control; assay type: functional; design: scale not given: the % may be the effect or the level left; settings: time 21 day
[17] = Cmax in C57BL/6 mouse at 20 mg/kg, po measured after 3 hrs; assay type: ADME, organism-based; design: route oral, dose 20 mg/kg, time 3 hrs; settings: in vivo
[18] = Half life in C57BL/6 mouse at 20 mg/kg, po; assay type: ADME, organism-based; settings: in vivo
[19] = Volume of distribution in C57BL/6 mouse at 20 mg/kg, po; assay type: ADME, organism-based; settings: in vivo
[20] = Oral bioavailability in C57BL/6 mouse at 20 mg/kg; assay type: ADME, organism-based; settings: in vivo

COc1ccc(/C=C/C(=O)c2ccccc2O)cc1
Activity (Schistosoma mansoni [1]): 32.8% | pIC50 (ATP-diphosphohydrolase 1): 4.51

CC1(C)CCC[C@]2(C)C(CC[C@@](C)(O)/C=C/c3ccc(F)cc3)[C@](C)(O)CC[C@@H]12 (some centres undefined)
pIC50 (Schistosoma mansoni [2]): > 5.70 | pIC50 (Schistosoma mansoni [3]): > 5.70 | pIC50 (Schistosoma mansoni [4]): > 5.70 | pIC50 (Schistosoma mansoni [5]): 5.03

CC(C)c1cc2c(cc1O)C(=O)C[C@H]1C(C)(C)CCC[C@]21C
LC50 (Schistosoma mansoni [6]): 19.1 µM

CN(Nc1ccc(Cl)cc1)C1NC(=O)N(Cc2ccccc2)C1=S (centres undefined)
Activity (Schistosoma mansoni [7]): 100% | Activity (Schistosoma mansoni [8]): 70.5%

C=CC(C)(C)c1cc(/C=C/C(=O)c2ccc(O)cc2)c(OC)cc1O [LICOAGROCHACONE A]
LC50 (Schistosoma mansoni [9]): 9.12 µM | LC50 (Schistosoma mansoni [10]): 9.52 µM | pIC50 (CHO-K1): 3.29

CN(c1ccc(F)cc1)N(C)C1NC(=O)N(Cc2ccc(Cl)cc2)C1=S (centres undefined)
Activity (Schistosoma mansoni [7]): 100% | Activity (Schistosoma mansoni [11]): 100%

Cc1ccc(-c2cs/c(=N/N=C/CN3C(=O)c4ccccc4C3=O)[nH]2)cc1
mortality at 100 µg/mL (Schistosoma mansoni [12]): 100% | pEC50 (Schistosoma mansoni [13]): 4.41 | pEC50 (Schistosoma mansoni [14]): 5.01

N#Cc1c(C(F)(F)F)cc(NCc2ccccc2F)n2c1nc1cc(Cl)c(Cl)cc12
Activity (Schistosoma japonicum): <1% | pIC50 (Schistosoma mansoni [15]): 6.42 | Activity (Schistosoma mansoni [16]): 69% | Cmax [17]: 300 nM | t1/2 [18]: 18 min | Vd [19]: 0.18 L/kg | bioavailability [20]: < 1%

From ChEMBL document CHEMBL4811216, “Chemotherapy for human schistosomiasis: how far have we come? What's new? Where do we go from here?” (RSC Med Chem, 2020)
